# Test results: patent publication US7683061B2, “Triazine dimers for the treatment of autoimmune diseases” (ProMetic BioSciences Inc., priority 2003, dated 2010)
# Columns and labels:
# [1] = molecular target: TNFα / p55 TNFα receptor (CD120a) (Homo sapiens, UniProt P01375); assay: Binding ELISA: sTNF-R1 binding to plastic coated TNF-α
# Description: Compounds were tested for their ability to bind to TNFα or inhibit the interaction of TNFα with its respective receptors; p55 and p75 TNFα receptor. Three binding ELISA assays were undertaken as described by Mancini et al. Biochemical Pharmacology 58, 851-859 (1999). TNFα or receptor (1 μg/mL) was coated on a 96-well plate Maxisorp, overnight at 4° C. After incubation, unbound TNFα or p55 TNFα receptor or p75 TNFα receptor was removed and the plate washed three times with PBS. The plate was then incubated with 100 μL/well of a 2% BSA solution for 1 h at 37° C. to block non specific protein binding. After incubation, the plate was washed three times with PBS. Biotinylated recombinant human TNFα p55 or p75 receptor or biotinylated recombinant human TNFα was added to the wells in the presence or absence of compounds. The plate was incubated for 1 h at 37° C. After incubation, the plate was washed three times with PBS to remove unbound labeled p55 or p75 receptor or recombinant human TNFα. 100 μL of avidin-HRP (diluted 1/2000 in PBS-0.1% BSA) was added to each well and incubated 1 h at 37° C. Bound p55 or p75 receptor or recombinant human TNFα was detected by the addition of 200 μL of 3,3′,5,5′-tetramethylbenzidine (TMB) per well for 15 min. The plate was then read at 655 nm on a EL 800 universal Microplate reader (Bio-Tek, Mississauga, Canada). Data was analyzed in Microsoft Excel and recorded as the percentage of inhibition of p55 or p75 binding to TNFα or TNFα binding to RI (p55) or RII (p75).
# NZBxNZW mice = assay: SLE-glomerulonephritis in NZBxNZW mice; type: in vivo
# Text: New Zealand mice of the F1 hybrid cross NZBxNZW develop most of the autoimmune abnormalities seen in human SLE and die from SLE-like immune complex (IC)-mediated glomerulonephritis. The mice develop high titers of anti-DNA (double-strand and single-strand) and nuclear extract (NE) antibodies, as well as SLE-related clinical manifestations including leukopenia, thrombocytopenia, proteinuria and glomerulonephritis. These mice develop anti-DNA antibodies after the age of 3 months, with a peak of anti-DNA antibody response occurring at 7 months. Subsequently, the serum concentration of anti-DNA antibodies declines, presumably as a consequence of progressive uremia. The first serological manifestations of the disease occurs at about 150 days (5 months). Their survival is evaluated at approximately 250 days.
# FIG. 2 illustrates the effect of compound 1 on the mortality of the NZBxNZW mice. Intravenous administration of compound or vehicle was undertaken once a week from week 18 to week 37. Treatment ceased for 11 weeks and was restarted at week 48 for the control and compound 1 groups. […] It also delays the appearance of symptoms and mortality up to week 45. FIG. 3 illustrates the proteinuria at week 48 to 51.
# [2] = tested on: female Lewis rats, collagen-induced arthritis; assay: Collagen-induced arthritis (CIA); type: in vivo; conditions: intravenous; from day 16 to day 21
# Description: Collagen-induced arthritis (CIA) was induced in female Lewis rats by intradermal administration of heterologous (bovine) type II collagen (250 μg) solubilized in 0.1 M acetic acid and emulsified in Complete Freund's Adjuvant (CFA). Rats were treated with the vehicle or methotrexate or compound 1 by intravenous injections at day 8, 9, 12, 14 and 16. Synovitis typically develops 12-15 days postimmunization in 80-90% of the animals. Once arthritis appears, each paw was examined two to three times a week. Both the incidence and severity of the arthritis was evaluated. Incidence is defined as the number of rats with clinical evidence of joint inflammation during the study period while severity was quantified by scoring daily each paw integer on a scale of 0 to 4 (0=normal, 4=maximum; Table 7) based on increasing levels of swelling, periarticular erythema and stiffness. The sum of the scores for all four paws was calculated as the arthritic index with a maximum possible score of 16 per rat. Since CIA primarily affects hind limbs, scores of 6-8 represent severe arthritis.
# MRL/lpr mice = assay: SLE-like syndrome in MRL/lpr mice; type: in vivo; conditions: control group 10%
# Text: FIG. 5 is an example of the effect of compounds on survival of MRL/lpr mice. These mice also spontaneously develop SLE-like syndrome. MRL/lpr have a homozygous fas mutation, which accelerates autoimmunity. […] Furthermore, compounds 1 and 20 increase the survival (40%) compared to the control group (10%).
# [3] = weekly intravenous, week 48 to week 52
# Chain of TNFα / p55 TNFα receptor (CD120a) (P01375 77-233 limits assumed): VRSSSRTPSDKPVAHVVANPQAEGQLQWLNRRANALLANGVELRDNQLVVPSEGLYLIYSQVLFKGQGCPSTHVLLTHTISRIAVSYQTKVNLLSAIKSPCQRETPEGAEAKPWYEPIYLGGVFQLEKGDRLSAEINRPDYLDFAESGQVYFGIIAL
smiles,measurement,setting,value
Oc1ccc(CCNc2nc(NCCNc3nc(NCCc4ccc(O)cc4)nc(Nc4ccccc4)n3)nc(Nc3ccccc3)n2)cc1 [Compound 1],inhibition at 100 µM,[1]; 10^−4 M,2.7%
same,inhibition at 10 µM,[1]; 10^−5 M,0%
same,delay of appearance of symptoms and mortality,NZBxNZW mice; intravenous once a week from week 18 to week 37,≤ 45 week
same,mortality of NZBxNZW mice,"NZBxNZW mice; intravenous once a week from week 18 to week 37, at week 37",reduces the mortality
same,extended survival,"NZBxNZW mice; second SLE study, 65 weeks for control",up to 89 weeks
same,proteinuria: amount of protein greater than 5 g/liter,"NZBxNZW mice; week 48 to 51, after 11 weeks without treatment",greater than the control
same,protein concentration (5 g/liter) in urine compared to the vehicle,NZBxNZW mice; [3],decrease
same,trace amount of protein in urine (improvement in kidney filtration),NZBxNZW mice; [3],increase
same,reduction of the arthritic index,[2],20%
same,survival of MRL/lpr mice,MRL/lpr mice,40%
